Converted amounts (≈) assume the structure as drawn. Where two headings read alike, the source gives them in different places.
Assays:
Test in all cases: S. aureus MIC80 determination, broth microdilution (CLSI) in CAMHB
Type in all cases: cell-based
S. aureus ATCC25923 = conditions: Staphylococcus aureus, ATCC25923, S. aureus ATCC 25923
Description: (§1) S. Aureus MIC80 determinations in S. aureus ATCC25923 or in multidrug-resistant strains AR215, AR217 and AR255. MIC80's were determined by the broth microdilution method recommended by the Clinical and Laboratory Standards Institute (CLSI) in Cation-adjusted Mueller-Hinton broth (CAMHB). (Cao et al., 2018). In the preliminary screening, three compound concentrations were used: 5.8, 20.4, and 71.4 μM; for quantitative MIC80 measurements, a 1.5-fold dilution series of the compounds was prepared in CAMHB. Overnight bacterial culture was added to the diluted compounds in a 96-well plate after adjusting the bacterial concentration to achieve a 5×10^5 CFU/mL final concentration. After 16-24 h incubation at 35±2° C., the plates were read at 600 nm in a microplate reader. The MIC80 was defined as the concentration of an antibacterial agent that inhibited bacteria growth ≥80% compared to vehicle-treated control cultures. All values were determined at least twice independently, and the average number is reported.

[1] = tested on: S. aureus AR217 (MRSA, multidrug-resistant strain); conditions: Staphylococcus aureus, MRSA, Table 2
Description: as §1
(§2) AR215, AR217, and AR222 were obtained from the Centers for Disease Control and Prevention (CDC). AR215 and AR217 are cefoxitin-screen positive (resistant to cefoxitin) and resistant to oxacillin, which are MRSA strains. AR215 is also resistant to clindamycin, erythromycin, levofloxacin, and penicillin. AR217 is also resistant to levofloxacin, penicillin, and Trimethoprim-sulfamethoxazole. AR222 is only resistant to penicillin.

S. aureus AR222 = conditions: Staphylococcus aureus, Table 2
Description: as §1, §2

[2] = tested on: S. aureus AR215 (MRSA, multidrug-resistant strain); conditions: Staphylococcus aureus, MRSA, Table 2
Description: as §1, §2

[3] = Table 1, growth inhibition ≥80% vs vehicle, 16-24 h, read-out: ATCC 25923 MIC80

| SMILES | MIC80 (S. aureus ATCC25923; [3]) [µM] | MIC80 (S. aureus ATCC25923; Table 2, read-out: MIC80) [µM] | MIC80 [1] [µM] | MIC80 (S. aureus AR222) [µM] | MIC80 [2] [µM] |
| --- | --- | --- | --- | --- | --- |
| Cc1ccoc1C(=O)N(CCCn1ccnc1)c1nc2c(C)cc(Cl)cc2s1 [Example 15, N-(3-(1H-imidazol-1-yl)propyl)-N-(6-chloro-4-methylbenzo[d]thiazol-2-yl)-3-methylfuran-2-carboxamide] | < 1.7 | 1.8 (≈ 0.747 µg/mL) | 4 (≈ 1.66 µg/mL) | 2.6 (≈ 1.08 µg/mL) | 13.3 (≈ 5.52 µg/mL) |
| Cc1ccc(C(=O)N(CCCn2ccnc2)c2nc3c(C)cc(Cl)cc3s2)o1 [Example 4, N-(3-(1H-imidazol-1-yl)propyl)-N-(6-chloro-4-methylbenzo[d]thiazol-2-yl)-5-methylfuran-2-carboxamide] | 2.6 (≈ 1.08 µg/mL) | 0.78 (≈ 0.324 µg/mL) | 5.9 (≈ 2.45 µg/mL) | 0.78 (≈ 0.324 µg/mL) | 8.9 (≈ 3.69 µg/mL) |

From patent publication US12570647B2 (Saint Louis University, priority 2021, dated 2026)
